According to patent US10676479B2, “Imidazolepyridine compounds and uses thereof” (Novartis AG, priority 2016, dated 2020):

How the values were obtained:
EED (1-441)-His protein = EED (1-441)-His protein (Homo sapiens (Human), UniProt O75530); assay: EED-H3K27Me3 peptide competition binding assay by AlphaScreen; details: EED Alphascreen binding Qualified assay
[1] = system: H3K27 methylation in G401 cell; assay: ELISA (H3K27 methylation) assay; type: cell-based; details: Homo sapiens, G-401, ELISA Qualified assay, 48 h, read-out: (c) IC50
Procedure, shortened: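 G401 cells given 3-fold serial dilutions (eight or twelve points, top 20 μM) for 48 h. Lysate ELISA for H3K27 methylation normalized to H3 signal, % inhibition versus DMSO, IC50 from dose-response fit.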

[2] = biological target: wild type PRC2 (wtPRC2) complex (Homo sapiens (Human), UniProt O75530); assay: EED LC-MS assay; type: biochemical; details: EED LC-MS Qualified assay; read-out: (b) IC50
Sequence of wild type PRC2 (wtPRC2) complex (O75530 whole entry): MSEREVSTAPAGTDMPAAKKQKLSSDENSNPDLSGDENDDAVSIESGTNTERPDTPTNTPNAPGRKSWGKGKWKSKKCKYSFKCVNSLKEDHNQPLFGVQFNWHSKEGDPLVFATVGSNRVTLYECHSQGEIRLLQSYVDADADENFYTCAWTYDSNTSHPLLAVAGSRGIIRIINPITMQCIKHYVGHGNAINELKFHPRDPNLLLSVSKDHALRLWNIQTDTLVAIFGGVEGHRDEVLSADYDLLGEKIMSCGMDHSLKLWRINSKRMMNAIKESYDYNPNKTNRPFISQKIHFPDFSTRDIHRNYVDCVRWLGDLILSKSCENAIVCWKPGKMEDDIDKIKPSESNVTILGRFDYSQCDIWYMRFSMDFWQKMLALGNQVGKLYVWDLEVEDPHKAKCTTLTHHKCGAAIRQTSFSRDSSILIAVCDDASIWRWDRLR
Sequence of wild type PRC2 (wtPRC2) complex (Q15910 whole entry partner): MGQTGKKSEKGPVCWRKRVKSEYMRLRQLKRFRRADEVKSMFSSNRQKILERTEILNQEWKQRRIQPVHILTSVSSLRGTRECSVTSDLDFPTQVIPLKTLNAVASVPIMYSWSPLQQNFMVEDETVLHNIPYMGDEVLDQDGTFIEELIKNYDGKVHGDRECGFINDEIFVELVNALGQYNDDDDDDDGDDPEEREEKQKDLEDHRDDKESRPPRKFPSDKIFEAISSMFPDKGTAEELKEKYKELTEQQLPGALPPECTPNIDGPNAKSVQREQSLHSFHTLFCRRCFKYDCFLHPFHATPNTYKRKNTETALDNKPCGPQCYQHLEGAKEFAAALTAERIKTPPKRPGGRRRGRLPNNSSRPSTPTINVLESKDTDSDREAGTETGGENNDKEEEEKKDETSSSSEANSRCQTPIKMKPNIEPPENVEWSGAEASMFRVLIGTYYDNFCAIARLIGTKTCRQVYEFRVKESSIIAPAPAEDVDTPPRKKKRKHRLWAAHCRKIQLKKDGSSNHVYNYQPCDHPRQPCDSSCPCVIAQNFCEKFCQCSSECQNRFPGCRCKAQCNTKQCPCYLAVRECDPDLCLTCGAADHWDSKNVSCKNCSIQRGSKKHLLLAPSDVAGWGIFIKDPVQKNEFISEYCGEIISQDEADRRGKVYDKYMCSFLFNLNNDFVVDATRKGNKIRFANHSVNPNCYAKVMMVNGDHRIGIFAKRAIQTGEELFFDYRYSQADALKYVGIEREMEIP
Sequence of wild type PRC2 (wtPRC2) complex (Q15022 whole entry partner): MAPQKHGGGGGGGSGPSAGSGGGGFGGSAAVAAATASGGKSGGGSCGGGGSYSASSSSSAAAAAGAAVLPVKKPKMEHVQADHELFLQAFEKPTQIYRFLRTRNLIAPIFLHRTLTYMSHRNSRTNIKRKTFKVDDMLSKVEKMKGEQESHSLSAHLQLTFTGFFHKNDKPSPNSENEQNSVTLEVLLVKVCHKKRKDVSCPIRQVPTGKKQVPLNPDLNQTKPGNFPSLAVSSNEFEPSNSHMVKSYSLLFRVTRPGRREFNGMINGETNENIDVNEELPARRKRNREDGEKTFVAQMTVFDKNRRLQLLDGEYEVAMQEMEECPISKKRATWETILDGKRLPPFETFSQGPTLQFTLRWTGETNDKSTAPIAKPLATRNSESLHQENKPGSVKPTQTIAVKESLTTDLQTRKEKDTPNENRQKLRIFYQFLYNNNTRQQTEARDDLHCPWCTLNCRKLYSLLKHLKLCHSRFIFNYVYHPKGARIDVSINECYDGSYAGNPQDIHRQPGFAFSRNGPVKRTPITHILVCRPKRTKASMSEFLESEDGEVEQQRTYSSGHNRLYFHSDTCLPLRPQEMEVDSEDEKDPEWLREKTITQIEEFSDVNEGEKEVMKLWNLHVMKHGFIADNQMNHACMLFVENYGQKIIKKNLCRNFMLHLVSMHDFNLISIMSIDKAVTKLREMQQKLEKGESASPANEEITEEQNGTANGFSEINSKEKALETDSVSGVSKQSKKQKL
Procedure: EED LC-MS Assay Representative compounds of the present invention were serially and separately diluted 3-fold in DMSO to obtain a total of eight or twelve concentrations. […] A 6 μL solution of 3 μM of the peptide substrate H3K27Me0 (histone H3[21-44]-biotin) in reaction buffer was added to initiate each reaction. […] The data were then fit to a dose response equation using the program Helios to get the IC50 values of the test compound.

Sequence of EED (1-441)-His protein (O75530 whole entry): as the sequence (O75530 whole entry) above

Row | SMILES | IC50 (EED (1-441)-His protein) [nM] | IC50 [1] [nM] | IC50 [2] [nM]
1 | O=C(c1ccc(-c2cnc(NCc3c(F)ccc4c3CCO4)n3cncc23)cc1)N1CCCC1 [Example 37, (4-(5-(((5-fluoro-2,3-dihydrobenzofuran-4-yl)methyl)amino)imidazo[1,5-c]pyrimidin-8-yl)phenyl)(pyrrolidin-1-yl)methanone] | 16.2 | 81.9 | 41.9
2 | CCOC(=O)c1ncn2c(NCc3cc(OC)c(F)cc3F)ncc(-c3ccc(S(C)(=O)=O)cc3)c12 [Example 7, Ethyl 5-((2,4-difluoro-5-methoxybenzyl)amino)-8-(4-(methylsulfonyl)phenyl)imidazo[1,5-c]pyrimidine-1-carboxylate] | 16.8 | 236 | 16.8
3 | Cc1nn(C)c(C)c1-c1cnc(NCc2c(F)ccc3c2CCO3)n2cncc12 [Example 46, N-((5-fluoro-2,3-dihydrobenzofuran-4-yl)methyl)-8-(1,3,5-trimethyl-1H-pyrazol-4-yl)imidazo[1,5-c]pyrimidin-5-amine] | 18.4 | 112 | 22.8
4 | Fc1ccc2c(c1CNc1ncc(-c3ccncc3)c3cncn13)CCO2 [Example 20, N-((5-fluoro-2,3-dihydrobenzofuran-4-yl)methyl)-8-(pyridin-4-yl)imidazo[1,5-c]pyrimidin-5-amine] | 21.2 | 81.1 | 44.1
5 | CN(C)Cc1ccc(-c2cnc(NCc3c(F)ccc4occc34)n3cncc23)cc1 [Example 67, 8-(4-((dimethylamino)methyl)phenyl)-N-((5-fluorobenzofuran-4-yl)methyl)imidazo[1,5-c]pyrimidin-5-amine] | 57.6 | 350 | 70.3
6 | Cc1ccc(-c2cnc(NCc3c(F)ccc4c3CCO4)n3cnc(C#N)c23)cn1 [Example 72, 5-(((5-fluoro-2,3-dihydrobenzofuran-4-yl)methyl)amino)-8-(6-methylpyridin-3-yl)imidazo[1,5-c]pyrimidine-1-carbonitrile] | 10.8 | 22 | 20.3
7 | CN(C)Cc1ccc(-c2cnc(NCc3cccc4occc34)n3cncc23)cc1 [Example 64, N-(benzofuran-4-ylmethyl)-8-(4-((dimethylamino)methyl)phenyl)imidazo[1,5-c]pyrimidin-5-amine] | 55.4 | 403 | 54.7
8 | Cc1cc(-c2cnc(NCc3c(F)ccc4c3CCO4)n3cncc23)ccn1 [Example 24, N-((5-fluoro-2,3-dihydrobenzofuran-4-yl)methyl)-8-(2-methylpyridin-4-yl)imidazo[1,5-c]pyrimidin-5-amine] | 20.9 | 52.1 | 26.5
9 | N#Cc1ncn2c(NCc3c(F)ccc4c3CCO4)ncc(-c3cccnc3C(F)F)c12 [Example 73, 8-(2-(difluoromethyl)pyridin-3-yl)-5-(((5-fluoro-2,3-dihydrobenzofuran-4-yl)methyl)amino)imidazo[1,5-c]pyrimidine-1-carbonitrile] | 23.5 | 55.3 | 56.4
10 | CN(C)c1ccc(-c2cnc(NCc3c(F)ccc4c3CCO4)n3cncc23)cn1 [Example 41, 8-(6-(dimethylamino)pyridin-3-yl)-N-((5-fluoro-2,3-dihydrobenzofuran-4-yl)methyl)imidazo[1,5-c]pyrimidin-5-amine] | 41.2 | 51.2 | 14.6
11 | CN1CCc2ccc(-c3cnc(NCc4c(F)ccc5c4CCO5)n4cncc34)cc2C1 [Example 26, N-((5-fluoro-2,3-dihydrobenzofuran-4-yl)methyl)-8-(2-methyl-1,2,3,4-tetrahydroisoquinolin-7-yl)imidazo[1,5-c]pyrimidin-5-amine] | 50.3 | 54.1 | 41.5
12 | c1cc(CNc2ncc(-c3ccc(N4CCNCC4)nc3)c3cncn23)c2ccoc2c1 [Example 66, N-(benzofuran-4-ylmethyl)-8-(6-(piperazin-1-yl)pyridin-3-yl)imidazo[1,5-c]pyrimidin-5-amine] | 72.1 | 444 | 49.3
13 | Fc1ccc2c(c1CNc1ncc(-c3cnccc3C(F)F)c3cncn13)CCO2 [Example 52, 8-(4-(difluoromethyl)pyridin-3-yl)-N-((5-fluoro-2,3-dihydrobenzofuran-4-yl)methyl)imidazo[1,5-c]pyrimidin-5-amine] | 10.2 | 42.5 | 17.8
14 | CCOC(=O)c1ncn2c(NCc3c(F)cccc3OC)ncc(-c3cccnc3C)c12 [Example 99, ethyl 5-((2-fluoro-6-methoxybenzyl)amino)-8-(2-methylpyridin-3-yl)imidazo[1,5-c]pyrimidine-1-carboxylate] | 16 | 68.6 | 14.6

The next compounds have a lower IC50 (EED (1-441)-His protein) than those just listed; values first:

Row | IC50 (EED (1-441)-His protein) [nM] | IC50 [1] [nM] | IC50 [2] [nM] | SMILES
15 | 3.7 | 2.3 | 7.7 | CS(=O)(=O)c1ncn2c(NCc3c(F)ccc4c3CCO4)ncc(-c3cccnc3C(F)F)c12 [Example 13, 8-(2-(Difluoromethyl)pyridin-3-yl)-N-((5-fluoro-2,3-dihydrobenzofuran-4-yl)methyl)-1-(methylsulfonyl)imidazo[1,5-c]pyrimidin-5-amine]
16 | 7.6 | 51.3 | 17.9 | Cc1cnccc1-c1cnc(NCc2c(F)ccc3c2CCO3)n2cncc12 [Example 36, N-((5-fluoro-2,3-dihydrobenzofuran-4-yl)methyl)-8-(3-methylpyridin-4-yl)imidazo[1,5-c]pyrimidin-5-amine]
17 | 8.3 | 6.8 | 18.1 | N#Cc1ncn2c(NCc3c(F)ccc4c3CCO4)ncc(-c3ccc(N4CCOCC4)nc3)c12 [Example 82, 5-(((5-fluoro-2,3-dihydrobenzofuran-4-yl)methyl)amino)-8-(6-morpholinopyridin-3-yl)imidazo[1,5-c]pyrimidine-1-carbonitrile]
18 | 5.1 | 17.9 | 16.2 | N#Cc1ncn2c(NCc3c(F)ccc4c3CCO4)ncc(-c3cccnc3CO)c12 [Example 78, 5-(((5-fluoro-2,3-dihydrobenzofuran-4-yl)methyl)amino)-8-(2-(hydroxymethyl)pyridin-3-yl)imidazo[1,5-c]pyrimidine-1-carbonitrile]
19 | 8.5 | 60.1 | 10.4 | CS(=O)(=O)c1ccc(-c2cnc(NCc3c(F)ccc4c3CCO4)n3cncc23)cc1 [Example 19, N-((5-fluoro-2,3-dihydrobenzofuran-4-yl)methyl)-8-(4-(methylsulfonyl)phenyl)imidazo[1,5-c]pyrimidin-5-amine]
20 | 9.9 | 94.8 | 23.1 | Cc1nn(C(C)C)cc1-c1cnc(NCc2c(F)ccc3c2CCO3)n2cncc12 [Example 53, N-((5-fluoro-2,3-dihydrobenzofuran-4-yl)methyl)-8-(1-isopropyl-3-methyl-1H-pyrazol-4-yl)imidazo[1,5-c]pyrimidin-5-amine]
21 | 9 | 14.7 | 14.1 | Cc1ncccc1-c1cnc(NCc2c(F)ccc3c2CCO3)n2cnc(C#N)c12 [Example 69, 5-(((5-fluoro-2,3-dihydrobenzofuran-4-yl)methyl)amino)-8-(2-methylpyridin-3-yl)imidazo[1,5-c]pyrimidine-1-carbonitrile]
22 | 7.5 | 22.1 | 15.9 | Cn1nccc1-c1cnc(NCc2c(F)ccc3c2CCO3)n2cncc12 [Example 33, N-((5-fluoro-2,3-dihydrobenzofuran-4-yl)methyl)-8-(1-methyl-1H-pyrazol-5-yl)imidazo[1,5-c]pyrimidin-5-amine]
23 | 7.9 | 20.4 | 13.5 | Cc1nn(CCO)c(C)c1-c1cnc(NCc2c(F)ccc3c2CCO3)n2cncc12 [Example 49, 2-(4-(5-(((5-fluoro-2,3-dihydrobenzofuran-4-yl)methyl)amino)imidazo[1,5-c]pyrimidin-8-yl)-3,5-dimethyl-1H-pyrazol-1-yl)ethan-1-ol]
24 | 7.9 | 4.1 | 18 | N#Cc1ncn2c(NCc3c(F)ccc4c3CCO4)ncc(-c3ccc(CN4CCCC4)cc3)c12 [Example 71, 5-(((5-fluoro-2,3-dihydrobenzofuran-4-yl)methyl)amino)-8-(4-(pyrrolidin-1-ylmethyl)phenyl)imidazo[1,5-c]pyrimidine-1-carbonitrile]
25 | 9.5 | 61.8 | 26.7 | Cc1nc(C(=O)N(C)C)ccc1-c1cnc(NCc2c(F)ccc3c2CCO3)n2cncc12 [Example 63, 5-(5-(((5-fluoro-2,3-dihydrobenzofuran-4-yl)methyl)amino)imidazo[1,5-c]pyrimidin-8-yl)-N,N,6-trimethylpicolinamide]
26 | 5.4 | 48.9 | 6.8 | C#Cc1ncn2c(NCc3c(F)ccc4c3CCO4)ncc(-c3cccnc3C)c12 [Example 12, 1-Ethynyl-N-((5-fluoro-2,3-dihydrobenzofuran-4-yl)methyl)-8-(2-methylpyridin-3-yl)imidazo[1,5-c]pyrimidin-5-amine]
27 | 2.4 | 11.7 | 11 | Cc1nc(N2CCOCC2)ncc1-c1cnc(NCc2c(F)ccc3c2CCO3)n2cnc(C#N)c12 [Example 84, 5-(((5-fluoro-2,3-dihydrobenzofuran-4-yl)methyl)amino)-8-(4-methyl-2-morpholinopyrimidin-5-yl)imidazo[1,5-c]pyrimidine-1-carbonitrile]
